Patent publication EP4585587A1, “PROPIONIC ACID DERIVATIVE AND USE THEREOF IN MEDICINE” (priority 2022, dated 2024)
Counter-ions that a name gives are not always drawn. Like-named read-outs stand apart in the source and are kept apart here.

Legend:
integrin α4β1 = test: Integrin α4β1-mediated cell adhesion assay (Jurkat cells on VCAM); type: cell-based
Protocol: VCAM was formulated into a final concentration of 0.5 µg/ml with a coating buffer, 50 µl of the solution was transferred to a 96-well plate, and the plate was coated with same at 4°C overnight. The plate was washed with coating buffer three times, then 150 µl of a blocking solution (coating buffer containing 1% BSA) was added, and the plate was blocked at 37°C for 1 h. Jurkat cells were collected, washed twice using DPBS buffer, and then resuspended to 4 × 10^6 cells/ml with an action buffer. 50 µl of the cell suspension was transferred to a 96-well plate so that the cell density reached 2 × 10^5 cells/well. Then 1 µl of the test compound at different concentration or DMSO was added and the plate was incubated at 37°C for 1 h. The plate was washed with coating buffer to remove non-adherent cells. 50 µl of a substrate (4-nitrophenyl-N-acetyl-β-D-glucosaminide) was added and the plate was incubated at 37°C for 2 h. Finally, 90 µl of a termination solution (50 mM glycine and 5 mM EDTA, pH 10.4) was added. The OD value of the plate was read at 405 nm. • Coating buffer: DMEM+ 20 mM HEPES+ 0.4 mM MnCl2 • Action buffer: DMEM+ 20 mM HEPES+ 0.1% BSA+0.4 mM MnCl2 • DMEM: dulbecco's modified eagle medium; • HEPES: 2-[4-(2-hydroxyethyl)piperazin-1-yl]ethanesulfonic acid Table 1 Results of effects of compounds on α4β7- and α4β1-mediated cell adhesion

integrin α4β7 = target: T1, integrin α4β7 (Homo sapiens, UniProt P13612+P26010); test: Integrin α4β7 cell adhesion assay (RPMI8866 cells on MAdCAM-1); type: cell-based
T1 sequence (P13612 34-1032): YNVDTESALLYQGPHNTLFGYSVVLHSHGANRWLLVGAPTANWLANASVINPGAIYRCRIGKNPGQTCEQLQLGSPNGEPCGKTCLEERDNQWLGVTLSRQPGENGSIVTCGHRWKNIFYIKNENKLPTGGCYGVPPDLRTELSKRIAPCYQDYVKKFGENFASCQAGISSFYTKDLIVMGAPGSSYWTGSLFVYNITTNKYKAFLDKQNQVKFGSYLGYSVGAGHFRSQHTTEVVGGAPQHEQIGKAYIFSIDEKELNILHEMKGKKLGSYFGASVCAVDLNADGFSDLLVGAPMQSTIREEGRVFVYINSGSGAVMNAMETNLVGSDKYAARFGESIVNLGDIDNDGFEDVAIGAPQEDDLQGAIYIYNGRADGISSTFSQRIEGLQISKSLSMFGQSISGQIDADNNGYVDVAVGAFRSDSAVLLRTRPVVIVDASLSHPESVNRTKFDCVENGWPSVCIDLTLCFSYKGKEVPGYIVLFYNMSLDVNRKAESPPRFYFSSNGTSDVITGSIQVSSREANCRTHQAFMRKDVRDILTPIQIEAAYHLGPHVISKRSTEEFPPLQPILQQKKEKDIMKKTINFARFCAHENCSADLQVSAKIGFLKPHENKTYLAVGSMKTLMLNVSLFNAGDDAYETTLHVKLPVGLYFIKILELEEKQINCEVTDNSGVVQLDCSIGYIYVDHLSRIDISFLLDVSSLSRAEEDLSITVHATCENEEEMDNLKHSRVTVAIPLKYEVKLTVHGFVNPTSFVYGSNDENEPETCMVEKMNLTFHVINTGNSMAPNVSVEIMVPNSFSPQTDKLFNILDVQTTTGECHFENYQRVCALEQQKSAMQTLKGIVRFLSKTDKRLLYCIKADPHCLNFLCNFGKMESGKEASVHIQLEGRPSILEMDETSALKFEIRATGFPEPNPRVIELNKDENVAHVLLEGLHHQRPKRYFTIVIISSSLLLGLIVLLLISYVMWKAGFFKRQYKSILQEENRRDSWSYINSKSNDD
T1 sequence (P26010 20-798): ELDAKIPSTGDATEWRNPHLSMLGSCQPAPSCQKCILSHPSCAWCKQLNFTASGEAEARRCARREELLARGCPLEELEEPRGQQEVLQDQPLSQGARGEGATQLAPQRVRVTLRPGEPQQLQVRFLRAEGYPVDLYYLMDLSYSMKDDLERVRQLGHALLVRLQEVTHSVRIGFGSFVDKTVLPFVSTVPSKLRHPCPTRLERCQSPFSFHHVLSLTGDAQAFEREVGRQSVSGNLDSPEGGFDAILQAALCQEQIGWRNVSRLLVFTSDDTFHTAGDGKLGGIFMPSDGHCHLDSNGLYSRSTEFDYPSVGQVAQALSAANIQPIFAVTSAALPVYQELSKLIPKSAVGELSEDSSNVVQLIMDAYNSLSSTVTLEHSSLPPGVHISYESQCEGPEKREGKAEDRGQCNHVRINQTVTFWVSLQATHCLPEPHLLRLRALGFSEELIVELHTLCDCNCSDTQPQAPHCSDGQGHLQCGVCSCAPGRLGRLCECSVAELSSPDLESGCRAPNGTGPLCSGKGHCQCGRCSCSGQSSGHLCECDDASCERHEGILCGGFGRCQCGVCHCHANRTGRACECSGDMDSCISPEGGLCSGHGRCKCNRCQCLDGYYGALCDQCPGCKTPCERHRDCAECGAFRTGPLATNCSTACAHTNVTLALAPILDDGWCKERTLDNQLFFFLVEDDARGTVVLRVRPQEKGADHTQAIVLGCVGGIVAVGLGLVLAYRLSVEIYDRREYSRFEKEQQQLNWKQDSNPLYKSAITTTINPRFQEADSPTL
Protocol: MAdCAM-1 was formulated with TBS buffer to a final concentration of 2 µg/ml, 50 µl of the solution was transferred to a 96-well plate, and the plate was coated with same at 4°C overnight. The plate was washed with TBS buffer three times, then 150 µl of a blocking solution (TBS buffer containing 1% BSA) was added, and the plate was blocked at 37°C for 1 h. […] 50 µl of the cell suspension was transferred to a 96-well plate so that the cell density reached 2×10^5 cells/well. Then 1 µl of the compound at different concentrations or DMSO was added and the plate was incubated at 37°C for 1 h or 2 h. The plate was washed with TBS buffer to remove non-adherent cells. 50 µl of a substrate (4-nitrophenyl-N-acetyl-β-D-glucosaminide) was added and the plate was incubated at 37°C for 2 h. […] The IC50 value was calculated using GraphPad Prism 6 software.

[1] = selectivity ratio of Jurkat (α4β1)/VCAM-1 IC50 to RPMI-8866 (α4β7)/MadCAM-1 IC50
[2] = RPMI8866 cells, MAdCAM-1 coated plate, reported as class symbol, read-out: RPMI-8866 (α4β7)/MadCAM-1 IC50
[3] = Jurkat cells, VCAM coated plate; read-out: Jurkat (α4β1)/VCAM-1 IC50
[4] = RPMI8866 cells, MAdCAM-1 coated plate, numeric value or bound, read-out: RPMI-8866 (α4β7)/MadCAM-1 IC50

SMILES	α4β1/α4β7 (integrin α4β1; [1])	IC50 (integrin α4β7; [2]) [µM]	IC50 (integrin α4β1; [3]) [µM]	also measured
Cc1cc(F)cc(C)c1-c1cc(C(CC(=O)O)NC(=O)C(CC(C)C)n2cc(CCN(C)CC3CC3(F)F)c(C(F)(F)F)cc2=O)cc2c1CCC2 (single isomer, unassigned) [Compound 1-2]	>50	< 0.01		
C#CC1CN(CCc2cn(C(CC(C)C)C(=O)NC(CC(=O)O)c3cc4c(c(-c5c(C)cc(F)cc5C)c3)CCC4)c(=O)cc2C(F)(F)F)C1 (single isomer, unassigned) [Compound 3-2]		< 0.01		
CC#Cc1cc(-c2c(C)cccc2C)c(F)c(C(CC(=O)O)NC(=O)[C@H](CC(C)C)n2cc(CCN3CCC4(CC4)C3)c(C(F)(F)F)cc2=O)c1F (single isomer, unassigned) [Compound 6-2]		< 0.01		
CC#Cc1cc(-c2c(C)cccc2C)c(F)c(C(CC(=O)O)NC(=O)C(CC(C)C)n2cc(CCN(C)CC3CC3(F)F)c(C(F)(F)F)cc2=O)c1F (single isomer, unassigned) [Compound 7-2]	182	< 0.01	> 0.5	
Cc1cc(F)cc(C)c1-c1c(F)c(C(CC(=O)O)NC(=O)[C@H](CC(C)C)n2cc(CC3CCN(C4CC4)CC3)c(C(F)(F)F)cc2=O)c(F)c2c1CCC2 (single isomer, unassigned) [Compound 24-2]		< 0.01		
COc1cc(C)c(-c2c(F)c(C(CC(=O)O)NC(=O)C(CC(C)C)n3cc(CCN(C)C)c(C(F)(F)F)cc3=O)c(F)c3c2CCC3)c(C)c1 (single isomer, unassigned) [Compound 39-2]	213			IC50 (integrin α4β1; read-out: Jurkat (α4β1)/VCAM-1 IC50; Jurkat cells, VCAM coated plate): > 0.5 µM; IC50 (integrin α4β7): < 0.01 µM
COc1ccc(C)c(-c2c(F)c(C(CC(=O)O)NC(=O)[C@H](CC(C)C)n3cc(CCN(C)C)c(C(F)(F)F)cc3=O)c(F)c3c2CCC3)c1C (single isomer, unassigned) [Compound 50-2]		< 0.01		
CC#Cc1cc(-c2c(C)cccc2C)c(F)c(C(CC(=O)O)NC(=O)C(CC(C)C)n2cc(CC3CN(C(C)C)C3)c(C(F)(F)F)cc2=O)c1F (single isomer, unassigned) [Trifluoroacetate salt of compound 18-2]	258	< 0.01	> 0.5	
CC#Cc1cc(-c2c(C)cccc2C)c(F)c(C(CC(=O)O)NC(=O)C(CC(C)C)n2cc(CC3CN(CC4CC4)C3)c(C(F)(F)F)cc2=O)c1F (single isomer, unassigned) [Trifluoroacetate salt of compound 19-2]	323	< 0.01	> 0.5	
Cc1cccc(C)c1-c1c(F)c(C(CC(=O)O)NC(=O)C(CC(C)C)n2cc(CCN(C)C)c(C(F)(F)F)cc2=O)c(F)c2c1CCC2 (single isomer, unassigned) [Trifluoroacetate salt of compound 20-2]	648	< 0.01	> 0.5	
COc1cc(C)c(-c2c(F)c(C(CC(=O)O)NC(=O)C(CC(C)C)n3cc(CCN(C)C)c(C(F)(F)F)cc3=O)c(F)c3c2CCC3)c(C)c1 (single isomer, unassigned) [Trifluoroacetate salt of compound 21-2]	1586			
CC#Cc1cc(-c2c(C)cccc2C)c(F)c(C(CC(=O)O)NC(=O)C(CC(C)C)n2cc(CC3CCN(C(C)C)CC3)c(C(F)(F)F)cc2=O)c1F (single isomer, unassigned) [Trifluoroacetate salt of compound 23-2]	310	< 0.01	> 0.5	
CC#Cc1cc(-c2c(C)cccc2C)c(F)c(C(CC(=O)O)NC(=O)C(CC(C)C)n2cc(CCC3CCN(C)C3)c(C(F)(F)F)cc2=O)c1F (single isomer, unassigned) [Trifluoroacetate salt of compound 27-2]	133	< 0.01	> 0.1	
Cc1cc(F)cc(C)c1-c1c(F)c(C(CC(=O)O)NC(=O)[C@H](CC(C)C)n2cc(CCC3CCCN3C)c(C(F)(F)F)cc2=O)c(F)c2c1CCC2 (single isomer, unassigned) [Trifluoroacetate salt of compound 28-2]	130	< 0.01		
COc1cc(C)c(-c2c(F)c(C(CC(=O)O)NC(=O)C(CC(C)C)n3cc(CCN(C)C)c(C(F)(F)F)cc3=O)c(F)c3c2CCC3)c(C)c1 (stereo not shown) [Compound 21-A]	119			
CC#Cc1cc(-c2c(C)cccc2C)c(F)c(C(CC(=O)O)NC(=O)[C@@H](CC(C)C)n2cc(CCN(CC)CC)c(C(F)(F)F)cc2=O)c1F (stereo partly shown) [Trifluoroacetate salt of compound 12-2]	354		> 0.1	IC50 (integrin α4β7; [4]): < 0.0005 µM
Cc1cc(F)cc(C)c1-c1cc(C(CC(=O)O)NC(=O)[C@H](CC(C)C)n2cc(CC3CN(CC4CC4)C3)c(C(F)(F)F)cc2=O)cc2c1CCC2 (stereo partly shown) [Trifluoroacetate salt of compound 15-2]	272		> 0.1	IC50 (integrin α4β7; [4]): < 0.001 µM
Cc1cc(F)cc(C)c1-c1cc(C(CC(=O)O)NC(=O)C(CC(C)C)n2cc(CC3CCN(C(C)C)CC3)c(C(F)(F)F)cc2=O)cc2c1CCC2 (stereo not shown) [Trifluoroacetate salt of compound 22-2]	307			
Cc1cc(F)cc(C)c1-c1c(F)c(C(CC(=O)O)NC(=O)C(CC(C)C)n2cc(CCC3CCN(C)C3)c(C(F)(F)F)cc2=O)c(F)c2c1CCC2 (stereo not shown) [Trifluoroacetate salt of compound 26-2]	177			
Cc1ccc(F)c(C)c1-c1c(F)c(C(CC(=O)O)NC(=O)[C@H](CC(C)C)n2cc(CCN(C)C)c(C(F)(F)F)cc2=O)c(F)c2c1CCC2 (stereo partly shown) [Trifluoroacetate salt of compound 48-2]				IC50 (integrin α4β7; [4]): < 0.001 µM
